Measurements reported in PubChem BioAssay AID179 (DTP/NCI, 2004).
Calls of active or inactive are those of the source.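 Rule for the calls: active = compounds giving half or more protection of infected cells from virus-caused growth loss, again on retest; inactive = the rest.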 Where a SMILES comes first, the peptide text is derived from it. Side-chain parts run from the residue outwards. The star is where a group is joined. Cbz = O=C(OCc1ccccc1)*; Boc = CC(C)(C)OC(=O)*

System: CEM cells HIV-1 protection, formazan growth assay
Assay: NCI AIDS Antiviral Assay
Settings: for IC50: measured here: growth of uninfected CEM cells
Method in brief: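 Steps: treat uninfected and HIV-1-infected human CEM cells at five drug levels; quantify growth by soluble formazan; retest any compound reaching 50% protection; classify actives from the retest.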

Compound | EC50 [µM] | IC50 [µM] | outcome
CN(C)C1=c2c(=O)n(C)c(=O)n(C)c2=NC2C=CC=CN12 (stereo not given) | > 174 | > 174 | –
Cc1c(C2Cc3ccccc3N2)c2ccccc2n1C (stereo not given) | > 603 | 195 | –
Oc1cc(Cl)cc2cc(Br)cnc12 | – | – | inactive
S=C1NC(=NC2CCCCC2)C2(CCN(CCc3ccccc3)CC2)N1c1ccccc1 | > 100 | 53.7 | –
C[n+]1c2ccccc2c(NCC(=O)O)c2ccccc21 | – | – | inactive
CSc1cc(C(=O)Nc2ccc(C3=NCCN3)cc2)ccc1C(=O)Nc1ccc(C2=NCCN2)cc1 | > 141 | 72.4 | –
OCC(CO)CC1COc2ccccc2O1 (stereo not given) | – | – | inactive
[CH3][Sn]([CH3])([S]CCS(=O)(=O)O)[S]CCS(=O)(=O)O | > 200 | 95.5 | –
Cn1c(Cl)cn2c3nc4ccccc4nc3c(=O)c(C#N)c12 | – | – | inactive
COc1cc2c3c(c1)SC(c1ccccc1)C(=O)N3CCN2 (stereo not given) | > 200 | 14.1 | –
CCCCCCCCCCCc1noc2c1C(=O)C(O)CC2 (stereo not given) | – | – | inactive
CC(C)(C)OC(=O)NC(CCCCNC(=O)CNC(=O)OCc1ccccc1)C(=O)NC(CCCCNC(=O)CNC(=O)OCc1ccccc1)C(=O)NC(CCCCNC(=O)CNC(=O)OCc1ccccc1)C(=O)NC(CCCCNC(=O)CNC(=O)OCc1ccccc1)C(=O)O (stereo not given) (Boc-K([Gly-Cbz])K([Gly-Cbz])K([Gly-Cbz])K([Gly-Cbz])-OH; configuration not given here) | 72.4 | > 100 | –
Cc1ccc(N2C(=O)/C(=C/c3ccc(N(CCC#N)CCC#N)cc3)CC2(O)c2ccccc2)cc1 (stereo not given) | > 7.94 | > 7.94 | –
CC1(C)C2C=CC1(C)C1(CC2)OCCO1 (stereo not given) | > 200 | > 200 | –
Cc1ccc2cc(N)c3ccc(C)nc3c2n1.Cc1ccc2cc(N)c3ccc(C)nc3c2n1.O=C1OC(C(O)C[O-])C(O)=C1O.[Cu+] | > 12.6 | 0.55 | –
O=C(O)C1=CCCc2ccc3ccccc3c21 | – | – | inactive
Cc1cc(=O)n(CC(=O)O)c2ccccc12 | > 200 | 105 | –
CCOC(=O)Cn1c(=O)c(-c2ccccc2NC(C)=O)nc2ccccc21 | > 200 | > 200 | –
ClCCCC1COc2ccccc2O1 (stereo not given) | > 200 | > 200 | –
O=C(O)C(C(F)(F)F)C(F)(F)F (tested in a mixture with another compound) | > 200 | > 200 | –
O=C(O)CCSc1nnc(COc2ccc(Cl)cc2)n1-c1ccccc1 | > 200 | 67.6 | –
COC(=O)C(C(=O)C(=O)Nc1nc(=S)[nH][nH]1)c1csc(N)n1 (stereo not given) | > 724 | > 724 | –

Compound | EC50 [µM] | IC50 [µM] | outcome
CC(C)C1CC(CO)(CNc2cc(Cl)nc(N)n2)C1 (stereo not given) | > 20 | 19.5 | –
O=C1/C(=C\c2ccc([N+](=O)[O-])cc2)CS(=O)(=O)C/C1=C/c1ccc([N+](=O)[O-])cc1 | > 0.2 | 0.0309 | –
c1ccc(C[P+]2(c3ccccc3)c3ccccc3-c3ccccc32)cc1 | > 200 | > 200 | –
COc1csc([C@H]2CCC3[C@@H]4CC=C5C[C@@H](O)CC[C@]5(C)C4CC[C@@]32C)n1 (stereo not given in full) | > 17.4 | > 17.4 | –
CCN(CC)CC(=O)Nc1cc(Cl)ccc1OC | > 200 | 178 | –
O=S(O)c1cc(Cl)cc(Cl)c1O | – | – | inactive
COc1ccc(C2CC(=O)CC(c3ccc(OC)cc3)C23C(=O)NC(=O)NC3=O)cc1 (stereo not given) | > 100 | 40.7 | –
CC(=O)N1CCCCCC1=O | > 1620 | > 1620 | –
Nc1nc2c(ncn2C2C=CC(CO)C2)c(=O)[nH]1 (stereo not given) | 36.3 | 324 | –
CCOC(=O)/C(C#N)=C/c1ccccc1F | > 309 | > 309 | –
CCN(CC)CC(C)Nc1cc(C)nc2c1ccc1c2ccc2c(NC(C)CN(CC)CC)cc(C)nc21 (stereo not given) | > 380 | 234 | –
CC(C)=CC1CC(n2cc(C)c(=O)[nH]c2=O)ON1CCO (stereo not given) | > 200 | > 200 | –
Nc1ncnc2c1ncn2CC(O)CO (stereo not given) | – | – | inactive
CCCCc1ccc(C(=O)O)nc1 | – | – | inactive
CCC(C)(O)c1cn(-c2cccc(S(=O)(=O)O)c2)nn1 (stereo not given) | > 417 | > 417 | –
COc1c(-c2ccccc2)oc2c(CP(=O)(OC)OC)cccc2c1=O | > 200 | 56.2 | –
CC(=O)NCCCCN(CCCNC(C)=O)C(=O)OCc1ccccc1 | > 200 | > 200 | –
COC1=CC(=C(c2ccc(O)c(OC)c2)c2ccc(O)c(OC)c2)C=CC1=O | > 200 | 3.55 | –
O=C1NC(=O)[C@@H](OCC2CCCCC2)[C@@H]2OCC3OC(C(O)C3O)C12 (stereo not given in full) | > 200 | > 200 | –
Cc1ccc2oc3ccccc3c(=O)c2c1 | > 24.5 | > 24.5 | –
O=C(OCCN1CCCCC1)c1cc2ccccc2n1-c1ccccc1 | > 200 | 97.7 | –
C[PH+](C)CC[PH+](CC[PH+](c1ccccc1)c1ccccc1)c1ccccc1.[C-]#[O+].[C-]#[O+].[C-]#[O+].[Mo] (stereo not given) | – | – | inactive

Compound | EC50 [µM] | IC50 [µM] | outcome
COc1ccc(C2C(Cl)C(=O)N2NC(=O)c2ccc(NC(C)=O)cc2)cc1OC (stereo not given) | > 200 | > 200 | –
O=C1CN(c2cccc(Cl)c2)C(=O)CN1CCN1CC(=O)N(c2cccc(Cl)c2)CC1=O | > 200 | > 200 | –
O=c1[nH]c2cccccc-2c1-c1nc2ccccc2[nH]1 | > 138 | > 138 | –
C/C(=N\NC(=S)N1CCC(C2CCN(C(=S)N/N=C(\C)c3ccccn3)CC2)CC1)c1ccccn1 | > 3.8 | 1.91 | –
NC1CSSCC(C(=O)O)NC1=O (stereo not given) | > 61.7 | > 61.7 | –
O=[N+]([O-])c1nccn1CC(O)c1ccc(F)cc1 (stereo not given) | > 1000 | > 1000 | –
CNn1c(-c2ccccc2)n[nH]c1=O | 110 | 151 | –
COc1ccc2c(c1OCC(=O)O)C(=O)C(CCC(=O)O)CC2 (stereo not given) | – | – | inactive
NC(=O)N/N=C1/C2CC3CC(C2)C1C3 (stereo not given) | > 200 | > 200 | –
CCCCCCNc1n[nH]c(=O)c2c1nnn2Cc1ccccc1 | > 200 | > 200 | –
O=C(c1ccccc1)c1cc2c([nH]c1=O)CCCCCC2 | > 200 | > 200 | –
CC1=NN(c2ccccc2)C(=O)C1N=Nc1ccc(Br)cc1C (stereo not given) | > 17.4 | > 17.4 | –
O=[N+]([O-])O.[Ga] | > 100 | > 100 | –
COc1ccc(C(=C2C(=O)OC(=O)C2=C(C)C)c2ccc(OC)cc2)cc1 | > 200 | 95.5 | –
Cc1ccccc1NC(=O)/C(C#N)=N\Nc1nc[nH]c1C(N)=O | > 200 | 0.257 | –
O=C(c1ccco1)N(C(=S)OCc1ccccn1)c1ccccc1 | > 200 | 105 | –
Cc1ccc(/C=C/C(=N/NC(=O)N/N=C(/C=C/c2ccc(C)cc2)C(C)C)C(C)C)cc1 | > 100 | > 100 | –
Cc1ccc(NC(=O)CC(=O)n2nc(C)c(N=Nc3ccccc3Cl)c2C)cc1 | – | – | inactive
O=c1c(Sc2c(SCSc3cnc4ccccc4c3Sc3c[nH]c4ccccc4c3=O)cnc3ccccc23)c[nH]c2ccccc12 | > 100 | > 100 | –
CCCCCCCCN(/N=C/c1c2c(O)c3c(O)c(C)c4c(c3c1O)C(=O)C(C)(O/C=C/C(OC)C(C)C(OC(C)=O)C(C)C(O)C(C)C(O)C(C)/C=C/C=C(C)C(=O)N2)O4)C1OC(COC(=O)c2ccccc2)C(OC(=O)c2ccccc2)C1OC(=O)c1ccccc1 (stereo not given) | > 200 | 10.5 | –
CCN1N=CSC12C(=O)N(c1ccccc1)C(=O)N2c1ccccc1 (stereo not given) | – | – | inactive
NCc1ccc(-c2ccc(CN)s2)s1 | > 28.2 | 13.2 | –

Compound | EC50 [µM] | IC50 [µM] | outcome
CC1CCC23COC(=O)C2C(O)CCC3C1(C)CC(O)c1ccoc1 (stereo not given) | > 145 | > 145 | –
O=CC1=CCC2c3[nH]c4ccccc4c3CCN2C1 (stereo not given) | > 372 | 41.7 | –
CN1CCC2(CC1)N=C1CCN(C)CC1S2 (stereo not given) | > 457 | 87.1 | –
O=C(CN1CCCCC1)Nc1ccc2c(c1)C1Oc3ccccc3CC1CO2 (stereo not given) | – | – | inactive
O=c1[nH]c(=O)n([C@@H]2C[C@H](CO)[C@H](O)C2)cc1/C=C/Br | > 759 | 275 | –
Cc1[nH]c2ccccc2c1C1Cc2ccccc2N1C(=O)C#Cc1ccc([N+](=O)[O-])cc1 (stereo not given) | – | – | inactive
O=C(O)Cc1cccc(=O)c(O)c1C(=O)O | > 200 | 129 | –
O=C1C2C(C(=O)N1c1ccccc1)C(c1ccccc1)N(c1ccccc1)C2c1ccccc1 (stereo not given) | > 22.4 | 15.8 | –
CSc1nc2c(c(N(C)C)n1)C=Nn1c(nc3ccccc31)S2 | 9.77 | 97.7 | –
CCC[n+]1noc(N)n1 | > 1510 | > 1510 | –
CN(C)C=C1C=CC=C1 | 166 | > 200 | –
CN1C(N)=NC(=O)/C1=C/c1ccccc1 | > 200 | 115 | –
CN(C)CCNC(=O)c1cc(NC(=O)c2cc(NC(=O)CC/C=C3/[C@@H]4CC[C@H]3N=N4)cn2C)cn1C | > 200 | > 200 | –
CC(C)CC(NC(=O)C(NC(=O)C(CO)NC(=O)C(C)NC(=O)C(CCCN=C(N)N)NC(=O)C(C)NC(=O)CN)C(C)C)C(=O)NC(CO)C(N)=O (stereo not given) (H-GARASVLS-NH2; configuration not given here) | – | – | inactive
O=S1(=O)O[C@H]2CCCC[C@@H]2O1 | > 45.7 | > 45.7 | –
COc1ccc(C(=O)N2c3ccccc3N(C)n3cccc3C2CC(=O)O)cc1 (stereo not given) | > 646 | 234 | –
CC1=CC2c3c(O)cc(-c4cc5ccc(O)cc5o4)cc3OC3(c4ccc(O)c5c4OC(C)(C)C=C5)Oc4cc(O)ccc4[C@H](C1)C23 (stereo not given in full) | > 20.9 | 3.72 | –
Cc1ccc(N2C(=O)CS/C2=C(\C#N)c2nc3ccccc3[nH]2)cc1 | > 200 | > 200 | –
COc1ccc(C(=O)C(CC2C(=O)NC(=O)NC2=O)c2ccc(OC)cc2)cc1 (stereo not given) | > 34.7 | > 34.7 | –
CCc1c(C)c2cc3[nH]c(cc4nc(cc5nc(cc1[nH]2)C(C)=C5CCC(=O)OC)C(CCC(=O)OC)=C4C)c(C)c3CC | – | – | inactive
